Consider one compound from article PMC5218480 (PLoS ONE, 2017).

The test concerns MV-4-11 cells. Nature of the test: Gene expression microarray analysis (Affymetrix PrimeView) and GSEA. In kind it is cell-based, human. Also noted: RFU PODN (11730768_x_at) / Fold change /veh PODN (11730768_x_at) / RFU LINC00158 (11744669_a_at) / Fold change /veh LINC00158 (11744669_a_at) / RFU DUSP10 (11751237_a_at) / Fold change /veh DUSP10 (11751237_a_at) / RFU ID3 (11757404_x_at) / Fold change /veh ID3 (11757404_x_at) / RFU PLEKHG5 (11737974_s_at) / Fold change /veh PLEKHG5 (11737974_s_at) / RFU LRRC4B (11730491_at) / Fold change /veh LRRC4B (11730491_at) / RFU GIMAP4 (11747438_a_at) / Fold change /veh GIMAP4 (11747438_a_at) / RFU KRT8 (11758183_x_at) / Fold change /veh KRT8 (11758183_x_at) / RFU CNN1 (11734310_a_at) / Fold change /veh CNN1 (11734310_a_at) / RFU VPS37D (11726825_at) / Fold change /veh VPS37D (11726825_at) / RFU C10orf10 (11716522_x_at) / Fold change /veh C10orf10 (11716522_x_at) / RFU KIR2DL2 /// KIR2DL4 /// KIR2DL5A /// KIR2DL5B /// KIR2DS1 /// KIR2DS2 /// KIR2DS3 /// KIR2DS4 /// KIR3DL3 /// KIR3DL3 /// KIR3DS1 (11738374_at) / Fold change /veh KIR2DL2 /// KIR2DL4 /// KIR2DL5A /// KIR2DL5B /// KIR2DS1 /// KIR2DS2 /// KIR2DS3 /// KIR2DS4 /// KIR3DL3 /// KIR3DL3 /// KIR3DS1 (11738374_at) / RFU C1QL1 (11718748_at) / Fold change /veh C1QL1 (11718748_at) / RFU TMPRSS4 (11747572_a_at) / Fold change /veh TMPRSS4 (11747572_a_at) / RFU HAMP (11756126_x_at) / Fold change /veh HAMP (11756126_x_at) / RFU RNFT2 (11725882_a_at) / Fold change /veh RNFT2 (11725882_a_at) / RFU NR4A2 (11747474_a_at) / Fold change /veh NR4A2 (11747474_a_at) / RFU ABCC12 (11746883_a_at) / Fold change /veh ABCC12 (11746883_a_at) / RFU TMEM136 (11760407_x_at) / Fold change /veh TMEM136 (11760407_x_at) / RFU CLDN22 /// WWC2 (11732394_at) / Fold change /veh CLDN22 /// WWC2 (11732394_at) / RFU HLA-DPB1 (11760878_x_at) / Fold change /veh HLA-DPB1 (11760878_x_at) / RFU SPINT1 (11716480_a_at) / Fold change /veh SPINT1 (11716480_a_at) / RFU GAP43 (11754022_s_at) / Fold change /veh GAP43 (11754022_s_at) / RFU A4GNT (11735810_at) / Fold change /veh A4GNT (11735810_at) / RFU PRB3 (11715151_x_at) / Fold change /veh PRB3 (11715151_x_at) / RFU TUBB4B (11761932_at) / Fold change /veh TUBB4B (11761932_at) / RFU CAPN14 (11732068_a_at) / Fold change /veh CAPN14 (11732068_a_at) / RFU TMCC2 (11721928_a_at) / Fold change /veh TMCC2 (11721928_a_at) / RFU IRGQ (11745062_a_at) / Fold change /veh IRGQ (11745062_a_at) / RFU FAM174B (11720279_a_at) / Fold change /veh FAM174B (11720279_a_at) / RFU TMPRSS4 (11748680_a_at) / Fold change /veh TMPRSS4 (11748680_a_at) / RFU FAM212B (11763350_a_at) / Fold change /veh FAM212B (11763350_a_at) / RFU PLEKHG5 (11743358_a_at) / Fold change /veh PLEKHG5 (11743358_a_at) / RFU ZSCAN30 (11745921_a_at) / Fold change /veh ZSCAN30 (11745921_a_at) / RFU CMKLR1 (11741424_a_at) / Fold change /veh CMKLR1 (11741424_a_at) / RFU LOC101060620 /// MAPK8IP1 (11723275_at) / Fold change /veh LOC101060620 /// MAPK8IP1 (11723275_at) / RFU SPTSSB (11747773_x_at) / Fold change /veh SPTSSB (11747773_x_at) / RFU PRSS12 (11739890_at) / Fold change /veh PRSS12 (11739890_at) / RFU BIN1 (11741810_x_at) / Fold change /veh BIN1 (11741810_x_at) / RFU WNT11 (11732464_a_at) / Fold change /veh WNT11 (11732464_a_at) / RFU C10orf10 (11716521_a_at) / Fold change /veh C10orf10 (11716521_a_at) / RFU C5orf56 (11738089_at) / Fold change /veh C5orf56 (11738089_at) / RFU CYB561 (11721691_x_at) / Fold change /veh CYB561 (11721691_x_at) / RFU ANKRD19P (11752326_a_at) / Fold change /veh ANKRD19P (11752326_a_at) / RFU OR2T12 /// OR2T33 /// OR2T8 (11738714_s_at) / Fold change /veh OR2T12 /// OR2T33 /// OR2T8 (11738714_s_at) / RFU VCAN (11748164_a_at) / Fold change /veh VCAN (11748164_a_at) / RFU JSRP1 (11732532_at) / Fold change /veh JSRP1 (11732532_at) / RFU KRTAP10-11 (11738290_x_at) / Fold change /veh KRTAP10-11 (11738290_x_at) / RFU MYO3A (11730013_a_at) / Fold change /veh MYO3A (11730013_a_at) / RFU EBF3 (11725865_a_at) / Fold change /veh EBF3 (11725865_a_at) / RFU CAMK2N1 (11719241_x_at) / Fold change /veh CAMK2N1 (11719241_x_at) / RFU C5orf56 (11738088_a_at) / Fold change /veh C5orf56 (11738088_a_at) / RFU OLFML3 (11715873_a_at) / Fold change /veh OLFML3 (11715873_a_at) / RFU LOC100653217 /// NTM (11731650_a_at) / Fold change /veh LOC100653217 /// NTM (11731650_a_at) / RFU MAPK11 (11762145_a_at) / Fold change /veh MAPK11 (11762145_a_at) / RFU FIZ1 (11724087_x_at) / Fold change /veh FIZ1 (11724087_x_at) / RFU OASL (11726364_x_at) / Fold change /veh OASL (11726364_x_at) / RFU SOX15 (11748057_x_at) / Fold change /veh SOX15 (11748057_x_at) / RFU CD79A (11719716_a_at) / Fold change /veh CD79A (11719716_a_at) / RFU HIST1H1D (11736915_at) / Fold change /veh HIST1H1D (11736915_at) / RFU CASKIN2 (11723855_a_at) / Fold change /veh CASKIN2 (11723855_a_at) / RFU LOC730098 (11760151_x_at) / Fold change /veh LOC730098 (11760151_x_at) / RFU OR4N2 (11742367_at) / Fold change /veh OR4N2 (11742367_at) / RFU PRRT2 (11749266_a_at) / Fold change /veh PRRT2 (11749266_a_at) / RFU SNX32 (11753110_a_at) / Fold change /veh SNX32 (11753110_a_at) / RFU CDHR5 (11726645_a_at) / Fold change /veh CDHR5 (11726645_a_at) / RFU RCAN1 (11760418_a_at) / Fold change /veh RCAN1 (11760418_a_at) / RFU FAM167A (11723789_a_at) / Fold change /veh FAM167A (11723789_a_at) / RFU FAM26E (11764081_at) / Fold change /veh FAM26E (11764081_at) / RFU ISYNA1 (11749810_s_at) / Fold change /veh ISYNA1 (11749810_s_at) / RFU ACY1 (11761880_at) / Fold change /veh ACY1 (11761880_at) / RFU 11764098_at / Fold change /veh 11764098_at / RFU SAMD14 (11745864_x_at) / Fold change /veh SAMD14 (11745864_x_at) / RFU NPB (11741838_a_at) / Fold change /veh NPB (11741838_a_at) / RFU TMPRSS6 (11731388_a_at) / Fold change /veh TMPRSS6 (11731388_a_at) / RFU KRTAP10-2 (11738614_at) / Fold change /veh KRTAP10-2 (11738614_at) / RFU ARHGAP8 /// PRR5-ARHGAP8 (11727945_x_at) / Fold change /veh ARHGAP8 /// PRR5-ARHGAP8 (11727945_x_at) / RFU KRTAP5-7 /// NADSYN1 (11734609_at) / Fold change /veh KRTAP5-7 /// NADSYN1 (11734609_at) / RFU RASL12 (11751679_a_at) / Fold change /veh RASL12 (11751679_a_at) / RFU CDKN2B (11736163_a_at) / Fold change /veh CDKN2B (11736163_a_at) / RFU PRF1 (11729649_at) / Fold change /veh PRF1 (11729649_at) / RFU, ZNF638 /// ZNF638-IT1 / Fold change vs veh, ZNF638 /// ZNF638-IT1 / RFU, PANK3 / Fold change vs veh, PANK3 / RFU, SH3YL1 / Fold change vs veh, SH3YL1 / RFU, ZEB2 / Fold change vs veh, ZEB2 / RFU, NRIP1 / Fold change vs veh, NRIP1 / RFU, PTTG1IP / Fold change vs veh, PTTG1IP / RFU, CAPN2 / Fold change vs veh, CAPN2 / RFU, MED14 / Fold change vs veh, MED14 / RFU, SNORA58 / Fold change vs veh, SNORA58 / RFU, C1orf63 / Fold change vs veh, C1orf63 / RFU, LRRFIP1 / Fold change vs veh, LRRFIP1 / RFU, NDUFAF7 / Fold change vs veh, NDUFAF7 / RFU, SLC12A2 / Fold change vs veh, SLC12A2 / RFU, IBTK / Fold change vs veh, IBTK / RFU, ESF1 / Fold change vs veh, ESF1 / Fold change vs veh, TMEM50B / RFU, TAOK1 / Fold change vs veh, TAOK1 / RFU, ACBD3 / Fold change vs veh, ACBD3 / RFU, TMA16 / Fold change vs veh, TMA16 / RFU, RWDD3 / Fold change vs veh, RWDD3 / RFU, BCAT1 / Fold change vs veh, BCAT1 / RFU, EDEM3 / Fold change vs veh, EDEM3 / RFU, TMEM33 / Fold change vs veh, TMEM33 / RFU, WDR75 / Fold change vs veh, WDR75 / RFU, AHCTF1 / Fold change vs veh, AHCTF1 / RFU, TFRC / Fold change vs veh, TFRC / RFU, ZDHHC17 / Fold change vs veh, ZDHHC17 / RFU, NOM1 / Fold change vs veh, NOM1 / RFU, ARL8B / Fold change vs veh, ARL8B / RFU, ZBTB11 / Fold change vs veh, ZBTB11 / RFU, TAMM41 / Fold change vs veh, TAMM41 / RFU, KIAA1704 /// LOC100996395 / Fold change vs veh, KIAA1704 /// LOC100996395 / RFU, ING1 / Fold change vs veh, ING1 / RFU, TRMT61B / Fold change vs veh, TRMT61B / RFU, FUBP3 / Fold change vs veh, FUBP3 / RFU, TP53 / Fold change vs veh, TP53 / RFU, TNKS2 / Fold change vs veh, TNKS2 / RFU, ZFP14 / Fold change vs veh, ZFP14 / RFU, ACTR2 / Fold change vs veh, ACTR2 / RFU, PPP3R1 / Fold change vs veh, PPP3R1 / RFU, PIK3R1 / Fold change vs veh, PIK3R1 / RFU, HNRNPA1 / Fold change vs veh, HNRNPA1 / RFU, RNF170 / Fold change vs veh, RNF170 / RFU, ZNF28 / Fold change vs veh, ZNF28 / RFU, RNGTT / Fold change vs veh, RNGTT / RFU, OGT / Fold change vs veh, OGT / RFU, BRD1 / Fold change vs veh, BRD1 / RFU, MARS / Fold change vs veh, MARS / RFU, ZNF655 / Fold change vs veh, ZNF655 / RFU, FAHD1 / Fold change vs veh, FAHD1 / RFU, BDP1 / Fold change vs veh, BDP1 / RFU, LRRCC1 / Fold change vs veh, LRRCC1 / RFU, ARID1A / Fold change vs veh, ARID1A / RFU, ZNF146 / Fold change vs veh, ZNF146 / RFU, ZNF330 / Fold change vs veh, ZNF330 / RFU, GPN3 / Fold change vs veh, GPN3 / RFU, C9orf123 / Fold change vs veh, C9orf123 / RFU, N4BP2L2 / Fold change vs veh, N4BP2L2 / RFU, ARFIP1 / Fold change vs veh, ARFIP1 / RFU, FAM179B / Fold change vs veh, FAM179B / RFU, BCL10 / Fold change vs veh, BCL10 / RFU, UHRF1BP1L / Fold change vs veh, UHRF1BP1L / RFU, BET1 / Fold change vs veh, BET1 / RFU, CNOT2 / Fold change vs veh, CNOT2 / RFU, ZNF268 / Fold change vs veh, ZNF268 / Fold change vs veh, ZNF507 / RFU, DGCR2 / Fold change vs veh, DGCR2 / RFU, WDSUB1 / Fold change vs veh, WDSUB1 / Fold change vs veh, HSP90B1 /// MIR3652 / RFU, ADSS / Fold change vs veh, ADSS / RFU, GK / Fold change vs veh, GK / RFU, ZNF148 / Fold change vs veh, ZNF148 / RFU, TAF9 / Fold change vs veh, TAF9 / RFU, SLC1A5 / Fold change vs veh, SLC1A5 / RFU, SLMO2 / Fold change vs veh, SLMO2 / RFU, ABCC4 / Fold change vs veh, ABCC4 / RFU, LOC101060439 /// RAP1B / Fold change vs veh, LOC101060439 /// RAP1B / RFU, RFX7 / Fold change vs veh, RFX7 / RFU, GTPBP10 / Fold change vs veh, GTPBP10 / RFU, CNEP1R1 / Fold change vs veh, CNEP1R1 / RFU, BIVM-ERCC5 /// ERCC5 / Fold change vs veh, BIVM-ERCC5 /// ERCC5 / RFU, ILF3 / Fold change vs veh, ILF3 / RFU 11762660_at / Fold change /veh 11762660_at / RFU VCAN (11757783_s_at) / Fold change /veh VCAN (11757783_s_at) / RFU DDX43 (11728927_at) / Fold change /veh DDX43 (11728927_at) / RFU KRT8 (11758188_x_at) / Fold change /veh KRT8 (11758188_x_at) / RFU NKD1 (11759106_at) / Fold change /veh NKD1 (11759106_at) / RFU SRD5A1 (11742802_a_at) / Fold change /veh SRD5A1 (11742802_a_at) / RFU TPSAB1 /// TPSB2 (11721975_s_at) / Fold change /veh TPSAB1 /// TPSB2 (11721975_s_at) / RFU GSTM3 (11746129_a_at) / Fold change /veh GSTM3 (11746129_a_at) / RFU IL23R (11737362_x_at) / Fold change /veh IL23R (11737362_x_at) / RFU TMEM51 (11727254_a_at) / Fold change /veh TMEM51 (11727254_a_at) / RFU PIWIL2 (11732686_x_at) / Fold change /veh PIWIL2 (11732686_x_at) / RFU ORM1 (11744905_x_at) / Fold change /veh ORM1 (11744905_x_at) / RFU CCDC152 (11743942_at) / Fold change /veh CCDC152 (11743942_at) / RFU ECM1 (11717891_a_at) / Fold change /veh ECM1 (11717891_a_at) / RFU IL23R (11748794_a_at) / Fold change /veh IL23R (11748794_a_at) / RFU TNFAIP8L3 (11732012_x_at) / Fold change /veh TNFAIP8L3 (11732012_x_at) / RFU MBOAT4 (11741988_at) / Fold change /veh MBOAT4 (11741988_at) / RFU 11764193_at / Fold change /veh 11764193_at / RFU TMEM53 (11763286_at) / Fold change /veh TMEM53 (11763286_at) / RFU MAGEB2 (11727129_at) / Fold change /veh MAGEB2 (11727129_at) / RFU TMEM200A (11744735_a_at) / Fold change /veh TMEM200A (11744735_a_at) / RFU CCDC152 (11751479_a_at) / Fold change /veh CCDC152 (11751479_a_at) / RFU FAM211A (11726209_a_at) / Fold change /veh FAM211A (11726209_a_at) / RFU RGS16 (11746705_a_at) / Fold change /veh RGS16 (11746705_a_at) / RFU VCAN (11755009_s_at) / Fold change /veh VCAN (11755009_s_at) / RFU RHOB (11743442_s_at) / Fold change /veh RHOB (11743442_s_at) / RFU RGS16 (11720943_a_at) / Fold change /veh RGS16 (11720943_a_at) / RFU RGS16 (11720944_at) / Fold change /veh RGS16 (11720944_at) / RFU, VPS4B / Fold change vs veh, VPS4B / RFU, CREB1 / Fold change vs veh, CREB1 / RFU, DNAJC13 / Fold change vs veh, DNAJC13 / RFU, GNAQ / Fold change vs veh, GNAQ / RFU, CDK5R1 / Fold change vs veh, CDK5R1 / RFU, ZRANB3 / Fold change vs veh, ZRANB3 / RFU, CUL4A / Fold change vs veh, CUL4A / RFU, CCNY / Fold change vs veh, CCNY / RFU, UFL1 / Fold change vs veh, UFL1 / RFU, COG3 / Fold change vs veh, COG3 / RFU, DIAPH2 / Fold change vs veh, DIAPH2 / RFU, SKA2 / Fold change vs veh, SKA2 / RFU, AFF3 / Fold change vs veh, AFF3 / RFU, LMF1 / Fold change vs veh, LMF1 / RFU, IPO11 / Fold change vs veh, IPO11 / RFU, DFFB / Fold change vs veh, DFFB / RFU, FOXP1 / Fold change vs veh, FOXP1 / RFU, CARD8 / Fold change vs veh, CARD8 / RFU, STRN3 / Fold change vs veh, STRN3 / RFU, ADK / Fold change vs veh, ADK / RFU, RASSF2 / Fold change vs veh, RASSF2 / RFU, WIPF1 / Fold change vs veh, WIPF1 / RFU, LARP1B / Fold change vs veh, LARP1B / RFU, RASA1 / Fold change vs veh, RASA1 / RFU, RB1 / Fold change vs veh, RB1 / RFU, PPFIA1 / Fold change vs veh, PPFIA1 / RFU, MAT2A / Fold change vs veh, MAT2A / RFU, CCT5 / Fold change vs veh, CCT5 / RFU, WDR92 / Fold change vs veh, WDR92 / RFU, CUX1 / Fold change vs veh, CUX1 / RFU, TTC7A / Fold change vs veh, TTC7A / RFU, TMEM135 / Fold change vs veh, TMEM135 / RFU, DEPTOR / Fold change vs veh, DEPTOR / RFU, CPM / Fold change vs veh, CPM / RFU, DNAJB6 / Fold change vs veh, DNAJB6 / RFU, CACNA2D3 / Fold change vs veh, CACNA2D3 / RFU, DTX4 / Fold change vs veh, DTX4 / RFU, TFCP2 / Fold change vs veh, TFCP2 / RFU, GMCL1 /// GMCL1P1 / Fold change vs veh, GMCL1 /// GMCL1P1 / RFU, AEBP2 / Fold change vs veh, AEBP2 / RFU, SNHG1 /// SNORD22 /// SNORD25 /// SNORD26 /// SNORD27 /// SNORD28 /// SNORD29 /// SNORD31 / Fold change vs veh, SNHG1 /// SNORD22 /// SNORD25 /// SNORD26 /// SNORD27 /// SNORD28 /// SNORD29 /// SNORD31 / Fold change (Aza/veh), C12orf56 (ProbeSet 11735607_a_at) / Fold change (ACY-1035/veh), C12orf56 (ProbeSet 11735607_a_at) / Fold change (Aza/veh), FGFR1OP (ProbeSet 11751329_s_at) / Fold change (ACY-1035/veh), FGFR1OP (ProbeSet 11751329_s_at) / Fold change (Aza/veh), VPS36 (ProbeSet 11739960_a_at) / Fold change (ACY-1035/veh), VPS36 (ProbeSet 11739960_a_at) / RFU SYPL1 (11715823_x_at) / Fold change /veh SYPL1 (11715823_x_at) / RFU IGFBP7 (11715501_s_at) / Fold change /veh IGFBP7 (11715501_s_at) / RFU REEP3 (11722064_at) / Fold change /veh REEP3 (11722064_at) / RFU IGLL1 (11728026_x_at) / Fold change /veh IGLL1 (11728026_x_at): dose or concentration left out as unconfirmed. The settings on record: ProbeSet 11743580_s_at; LIST B.

In the case of `Nc1ccc(-c2cccs2)cc1NC(=O)c1ccc2c(c1)cc(C1CC1)n2CCN1CCOCC1` [ACY-1035], the “Fold change vs veh, ACTR2” value was 0.83.
